Results as given in article PMC8510290, “Fishing of α-Glucosidase’s Ligands from Aloe vera by α-Glucosidase Functionalized Magnetic Nanoparticles” (Molecules, 2021).

Target: T1, α-glucosidase (Saccharomyces cerevisiae, UniProt P53341)
T1 construct: gene MAL12
Experiment: p-NPG hydrolysis assay (activation, maximal effect ratio) with purified enzyme; also fished out by enzyme-immobilized magnetic nanoparticles
Type: biochemical

T1 sequence (P53341 whole entry): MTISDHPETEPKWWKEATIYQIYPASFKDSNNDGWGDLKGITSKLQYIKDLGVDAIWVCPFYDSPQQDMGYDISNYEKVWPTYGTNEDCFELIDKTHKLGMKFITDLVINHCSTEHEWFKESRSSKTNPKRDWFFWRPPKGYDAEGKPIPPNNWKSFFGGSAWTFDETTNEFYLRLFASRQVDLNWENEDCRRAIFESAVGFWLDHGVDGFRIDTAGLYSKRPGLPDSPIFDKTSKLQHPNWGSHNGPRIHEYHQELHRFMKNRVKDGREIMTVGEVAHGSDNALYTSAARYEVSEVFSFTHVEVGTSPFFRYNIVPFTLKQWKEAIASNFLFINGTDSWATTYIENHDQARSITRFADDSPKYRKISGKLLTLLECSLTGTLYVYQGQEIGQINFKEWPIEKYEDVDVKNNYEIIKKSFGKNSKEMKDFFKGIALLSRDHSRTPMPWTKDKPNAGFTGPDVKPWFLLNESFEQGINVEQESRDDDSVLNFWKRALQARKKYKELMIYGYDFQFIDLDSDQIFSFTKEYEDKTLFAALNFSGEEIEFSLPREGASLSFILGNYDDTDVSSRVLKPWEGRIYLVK

Emax [%] | SMILES
17.8 ± 0.3 | CC(=O)c1c(C[C@@H]2Cc3cc(O)cc(O)c3C(=O)O2)cc(O)cc1O[C@@H]1O[C@H](CO)[C@@H](O)[C@H](OC(=O)/C=C/c2ccc(O)cc2)[C@H]1O [compound 2, aloeacone]
26.4 ± 0.8 | COc1cc(-c2c(C)cc(O)cc2O)oc(=O)c1 [compound 1, aloenin aglycone]
